Laboratory results from patent publication US11357230B2, “Herbicidal amides” (FMC Corporation, priority 2017, dated 2022).

Legend:
Format in all cases: in vivo
[1] = test system: barnyardgrass (Echinochloa crus-galli); assay: Test A postemergence, barnyardgrass; details: approximately 10 d
Source text: (§1) Seeds of plant species selected from barnyardgrass (Echinochloa crus-galli), kochia (Kochia scoparia), ragweed (common ragweed, Ambrosia elatior), ryegrass, Italian (Italian ryegrass, Lolium multiflorum), foxtail, green (green foxtail, Setaria viridis), and pigweed (Amaranthus retroflexus) were planted into a blend of loam soil and sand and treated preemergence with a directed soil spray using test chemicals formulated in a non-phytotoxic solvent mixture which included a surfactant. At the same time, plants selected from these weed species and also wheat (Triticum aestivum), corn (Zea mays), blackgrass (Alopecurus myosuroides), and galium (catchweed bedstraw, Galium aparine) were planted in pots containing the same blend of loam soil and sand and treated with postemergence applications of test chemicals formulated in the same manner. Plants ranged in height from 2 to 10 cm and were in the one- to two-leaf stage for the postemergence treatment. Treated plants and untreated controls were maintained in a greenhouse for approximately 10 d, after which time all treated plants were compared to untreated controls and visually evaluated for injury. Plant response ratings, summarized in Table A, are based on a 0 to 100 scale where 0 is no effect and 100 is complete control. A dash (-) response means no test result.

[2] = test system: blackgrass (Alopecurus myosuroides); assay: Test A postemergence, blackgrass; details: approximately 10 d
Source text: as §1

corn (Zea mays) = assay: Test A postemergence, corn; details: approximately 10 d
Source text: as §1

Foxtail, Giant [3] = assay: Test A postemergence, giant foxtail; details: approximately 10 d
[4] = test system: galium (catchweed bedstraw, Galium aparine); assay: Test A postemergence, galium; details: approximately 10 d
Source text: as §1

kochia (Kochia scoparia) [5] = assay: Test A postemergence, kochia; details: approximately 10 d
Source text: as §1

[6] = test system: pigweed (Amaranthus retroflexus); assay: Test A postemergence, pigweed; details: approximately 10 d
Source text: as §1

[7] = test system: ragweed (common ragweed, Ambrosia elatior); assay: Test A postemergence, ragweed; details: approximately 10 d
Source text: as §1

[8] = test system: ryegrass, Italian (Italian ryegrass, Lolium multiflorum); assay: Test A postemergence, Italian ryegrass; details: approximately 10 d
Source text: as §1

[9] = test system: wheat (Triticum aestivum); assay: Test A postemergence, wheat; details: approximately 10 d
Source text: as §1

[10] = test system: barnyardgrass (Echinochloa crus-galli); assay: Test A preemergence, barnyardgrass; details: approximately 10 d
Source text: as §1

Foxtail, Giant [11] = assay: Test A preemergence, giant foxtail; details: approximately 10 d
kochia (Kochia scoparia) [12] = assay: Test A preemergence, kochia; details: approximately 10 d
Source text: as §1

[13] = test system: pigweed (Amaranthus retroflexus); assay: Test A preemergence, pigweed; details: approximately 10 d
Source text: as §1

[14] = test system: ragweed (common ragweed, Ambrosia elatior); assay: Test A preemergence, ragweed; details: approximately 10 d
Source text: as §1

[15] = test system: ryegrass, Italian (Italian ryegrass, Lolium multiflorum); assay: Test A preemergence, Italian ryegrass; details: approximately 10 d
Source text: as §1

[16] = test system: barnyardgrass (Echinochloa crus-galli); assay: Test B flooded paddy test, barnyardgrass; details: 250 g ai/ha, Flood (paddy water), 13 to 15 d
Description: (§2) Plant species in the flooded paddy test selected from rice (Oryza sativa), sedge, umbrella (small-flower umbrella sedge, Cyperus difformis), ducksalad (Heteranthera limosa), and barnyardgrass (Echinochloa crus-galli) were grown to the 2-leaf stage for testing. At time of treatment, test pots were flooded to 3 cm above the soil surface, treated by application of test compounds directly to the paddy water, and then maintained at that water depth for the duration of the test. Treated plants and controls were maintained in a greenhouse for 13 to 15 d, after which time all species were compared to controls and visually evaluated. Plant response ratings, summarized in Table B, are based on a scale of 0 to 100 where 0 is no effect and 100 is complete control. A dash (-) response means no test result.

[17] = test system: ducksalad (Heteranthera limosa); assay: Test B flooded paddy test, ducksalad; details: 250 g ai/ha, Flood (paddy water), 13 to 15 d
Description: as §2

rice (Oryza sativa) = assay: Test B flooded paddy test, rice; details: 250 g ai/ha, Flood (paddy water), 13 to 15 d
Description: as §2

[18] = test system: sedge, umbrella (small-flower umbrella sedge, Cyperus difformis); assay: Test B flooded paddy test, umbrella sedge; details: 250 g ai/ha, Flood (paddy water), 13 to 15 d
Description: as §2

[19] = test system: foxtail, green (green foxtail, Setaria viridis); assay: Test A postemergence, green foxtail; details: approximately 10 d
Source text: as §1

[20] = test system: foxtail, green (green foxtail, Setaria viridis); assay: Test A preemergence, green foxtail; details: approximately 10 d
Source text: as §1

| SMILES | Plant response rating (0 to 100 scale, 0 is no effect, 100 is complete control) ([1]; 31 g ai/ha) | Plant response rating (0 to 100 scale, 0 is no effect, 100 is complete control) ([1]; 125 g ai/ha) | Plant response rating (0 to 100 scale, 0 is no effect, 100 is complete control) ([2]; 31 g ai/ha) | Plant response rating (0 to 100 scale, 0 is no effect, 100 is complete control) ([2]; 125 g ai/ha) | Plant response rating (0 to 100 scale, 0 is no effect, 100 is complete control) (corn (Zea mays); 31 g ai/ha) | Plant response rating (0 to 100 scale, 0 is no effect, 100 is complete control) (corn (Zea mays); 125 g ai/ha) | Plant response rating (0 to 100 scale, 0 is no effect, 100 is complete control) ([4]; 31 g ai/ha) | Plant response rating (0 to 100 scale, 0 is no effect, 100 is complete control) ([4]; 125 g ai/ha) | Plant response rating (0 to 100 scale, 0 is no effect, 100 is complete control) (kochia (Kochia scoparia) [5]; 31 g ai/ha) | Plant response rating (0 to 100 scale, 0 is no effect, 100 is complete control) (kochia (Kochia scoparia) [5]; 125 g ai/ha) | Plant response rating (0 to 100 scale, 0 is no effect, 100 is complete control) ([6]; 31 g ai/ha) | Plant response rating (0 to 100 scale, 0 is no effect, 100 is complete control) ([6]; 125 g ai/ha) | Plant response rating (0 to 100 scale, 0 is no effect, 100 is complete control) ([7]; 31 g ai/ha) | Plant response rating (0 to 100 scale, 0 is no effect, 100 is complete control) ([7]; 125 g ai/ha) | Plant response rating (0 to 100 scale, 0 is no effect, 100 is complete control) ([8]; 31 g ai/ha) | Plant response rating (0 to 100 scale, 0 is no effect, 100 is complete control) ([8]; 125 g ai/ha) | Plant response rating (0 to 100 scale, 0 is no effect, 100 is complete control) ([9]; 31 g ai/ha) | Plant response rating (0 to 100 scale, 0 is no effect, 100 is complete control) ([9]; 125 g ai/ha) | Plant response rating (0 to 100 scale, 0 is no effect, 100 is complete control) ([10]; 31 g ai/ha) | Plant response rating (0 to 100 scale, 0 is no effect, 100 is complete control) ([10]; 125 g ai/ha) | also measured |
| --- | --- | --- | --- | --- | --- | --- | --- | --- | --- | --- | --- | --- | --- | --- | --- | --- | --- | --- | --- | --- | --- |
| CN1C[C@H](c2ccc(C(F)(F)F)cc2)[C@@H](C(=O)Nc2cccc(F)c2F)C1=NNC(=O)OC(C)(C)C (relative stereo) [Compound 8] | 60 | 80 | 30 | 60 | 20 | 70 | 60 | 70 | 0 | 0 | 30 | 40 | 0 | 0 | 10 | 60 | 0 | 40 | 90 | 90 | Plant response rating (0 to 100 scale, 0 is no effect, 100 is complete control) (Foxtail, Giant [3]; 31 g ai/ha): 50; Plant response rating (0 to 100 scale, 0 is no effect, 100 is complete control) (Foxtail, Giant [3]; 125 g ai/ha): 80; Plant response rating (0 to 100 scale, 0 is no effect, 100 is complete control) (Foxtail, Giant [11]; 31 g ai/ha): 90; Plant response rating (0 to 100 scale, 0 is no effect, 100 is complete control) (Foxtail, Giant [11]; 125 g ai/ha): 90; Plant response rating (0 to 100 scale, 0 is no effect, 100 is complete control) (kochia (Kochia scoparia) [12]; 31 g ai/ha): 20; Plant response rating (0 to 100 scale, 0 is no effect, 100 is complete control) (kochia (Kochia scoparia) [12]; 125 g ai/ha): 80; Plant response rating (0 to 100 scale, 0 is no effect, 100 is complete control) ([13]; 31 g ai/ha): 30; Plant response rating (0 to 100 scale, 0 is no effect, 100 is complete control) ([13]; 125 g ai/ha): 80; Plant response rating (0 to 100 scale, 0 is no effect, 100 is complete control) ([14]; 125 g ai/ha): 20; Plant response rating (0 to 100 scale, 0 is no effect, 100 is complete control) ([15]; 31 g ai/ha): 20; Plant response rating (0 to 100 scale, 0 is no effect, 100 is complete control) ([15]; 125 g ai/ha): 70; Plant response rating (scale of 0 to 100, 0 is no effect, 100 is complete control) [16]: 75; Plant response rating (scale of 0 to 100, 0 is no effect, 100 is complete control) [17]: 60; Plant response rating (scale of 0 to 100, 0 is no effect, 100 is complete control) (rice (Oryza sativa)): 0; Plant response rating (scale of 0 to 100, 0 is no effect, 100 is complete control) [18]: 0 |
| CN1C[C@H](c2ccc(C(F)(F)F)cc2)[C@@H](C(=O)Nc2cccc(F)c2F)C1=NNC(=O)C(C)(C)C [Compound 1, 2-[(3R,4S)-3-[[(2,3-difluorophenyl)amino]carbonyl]-1-methyl-4-[4-(trifluoromethyl)phenyl]-2-pyrrolidinylidene]hydrazide 2,2-dimethylpropanoic Acid] | 40 | 80 | 10 | 50 | 0 | 40 | 0 | 10 | 0 | 0 | 0 | 0 | 0 | 0 | 20 | 60 | 0 | 30 | 80 | 100 | Plant response rating (0 to 100 scale, 0 is no effect, 100 is complete control) ([19]; 31 g ai/ha): 40; Plant response rating (0 to 100 scale, 0 is no effect, 100 is complete control) ([19]; 125 g ai/ha): 80; Plant response rating (0 to 100 scale, 0 is no effect, 100 is complete control) ([20]; 31 g ai/ha): 50; Plant response rating (0 to 100 scale, 0 is no effect, 100 is complete control) ([20]; 125 g ai/ha): 100; Plant response rating (0 to 100 scale, 0 is no effect, 100 is complete control) (kochia (Kochia scoparia) [12]; 31 g ai/ha): 0; Plant response rating (0 to 100 scale, 0 is no effect, 100 is complete control) (kochia (Kochia scoparia) [12]; 125 g ai/ha): 60; Plant response rating (0 to 100 scale, 0 is no effect, 100 is complete control) ([13]; 31 g ai/ha): 50; Plant response rating (0 to 100 scale, 0 is no effect, 100 is complete control) ([13]; 125 g ai/ha): 90; Plant response rating (0 to 100 scale, 0 is no effect, 100 is complete control) ([14]; 31 g ai/ha): 0; Plant response rating (0 to 100 scale, 0 is no effect, 100 is complete control) ([14]; 125 g ai/ha): 100; Plant response rating (0 to 100 scale, 0 is no effect, 100 is complete control) ([15]; 31 g ai/ha): 0; Plant response rating (0 to 100 scale, 0 is no effect, 100 is complete control) ([15]; 125 g ai/ha): 0; Plant response rating (scale of 0 to 100, 0 is no effect, 100 is complete control) [16]: 65; Plant response rating (scale of 0 to 100, 0 is no effect, 100 is complete control) [17]: 30; Plant response rating (scale of 0 to 100, 0 is no effect, 100 is complete control) (rice (Oryza sativa)): 0; Plant response rating (scale of 0 to 100, 0 is no effect, 100 is complete control) [18]: 0 |
